Data published in patent US4584293A, “Aminotetralin derivatives” (Dr. Karl Thomae GmbH, priority 1984, dated 1986).
Where a name gives a salt, the structure may show the parent alone.

Columns and labels:
Format in all cases: in vivo
[1] = system: heart rate; assay: Effect on heart rate in rats (anesthetized, i.v.); details: 5.0 mg/kg into jugular vein, pentobarbital-anesthetized rats
Protocol: The effect of the test substances on heart rate is tested in rats (two) with an average weight of from 250 to 300 g for each dose. The rats are anesthetized with pentobarbital (50 mg/kg i.p. and 20 mg/kg s.c.). The test substances are injected in aqueous solution into the jugular vein (0.1 ml/100 g). The blood pressure is measured using a canula tied into a carotid artery and heart rate was recorded from an ECG (II or III derivation) obtained with needle electrodes. The heart rate of the animals in the control period is between 350 and 400 beats per minute (b/min).

[2] = system: heart rate; assay: Effect on heart rate in cats (anesthetised, i.v.); details: chloralose-anesthetised cats
Protocol: The effect of the test substances on heart rate is tested on cats (seven) of both sexes with an average weight of from 2.5 to 3.5 kg for each dose. The cats are anesthetised with chloralose (80 mg/kg). The test substance is injected in aqueous solution into the vena saphena. The heart rate is recorded before and after administration of the substance using a Grass tachograph from the electrocardiogram (electrode attached to the chest wall) on a Grass polygraph.

[3] = Toxic side effects in mice after intravenous administration; details: administered intravenously, 20 mg/kg in mice
Excerpt: The compounds prepared according to the invention have no toxic side effects in therapeutic doses. […] In view of their pharmacological properties the compounds according to the invention are suitable for the treatment of sinus tachycardia of various origins and for the prophylaxis and therapy of ischaemic heart diseases.

Row | SMILES | Lowering of heart rate measured 20 minutes after administration of substance [1] [b/min] | Half life ([2]; 1.0 mg/kg i.v.) [min] | Lowering of heart rate ([2]; 1.0 mg/kg i.v.) [%] | toxic side effects [3] | Half life ([2]; 0.3 mg/kg i.v.) [min] | Lowering of heart rate ([2]; 0.3 mg/kg i.v.) [%]
1 | COc1cc2c(cc1OC)CC(=O)N(CCCNC1CCc3cc(OC)c(OC)cc3C1)CC2.Cl (stereo not drawn) [Substance B, 1-[7,8-Dimethoxy-1,3,4,5-tetrahydro-2H-3-benzazepin-2-on-3-yl]-3-[N-(6,7-dimethoxy-1,2,3,4-tetrahydronaphth-2-yl)-amino]-propane hydrochloride] | -203 | > 120 | -55 | no toxic side effects apart from slight sedation |  | 
2 | COc1ccc2c(c1)CCC(N(C)CCCN1CCc3cc(OC)c(OC)cc3CC1=O)C2.Cl (stereo not drawn) [Substance D, 1-[7,8-Dimethoxy-1,3,4,5-tetrahydro-2H-3-benzazepin-2-on-3-yl]-3-[N-methyl-N-(6-methoxy-1,2,3,4-tetrahydronaphth-2-yl)-amino]-propane hydrochloride] | -165 |  |  |  |  | 
3 | COc1cc2c(cc1OC)CC(=O)N(CCCN(C)C1CCc3cc(OC)c(OC)cc3C1)CC2.Cl (stereo not drawn) [Substance A, 1-[7,8-Dimethoxy-1,3,4,5-tetrahydro-2H-3-benzazepin-2-on-3-yl]-3-[N-methyl-N-(6,7-dimethoxy-1,2,3,4-tetrahydronaphth-2-yl)-amino]-propane hydrochloride] | -176 | > 120 | -58 | no toxic side effects apart from slight sedation | > 120 | -30
4 | COc1ccc2c(c1)CC(N(C)CCCN1CCc3cc(OC)c(OC)cc3CC1=O)CC2 (stereo not drawn) [Substance C, 1-7,8-Dimethoxy-1,3,4,5-tetrahydro-2H-3-benzazepin-2-on-3-yl]-3-[N-methyl-N-(7-methoxy-1,2,3,4-tetrahydronaphth-2-yl)-amino]-propane hydrochloride] | -184 |  |  |  |  | 
